The results in this text go back to patent US9090593B2, “Bicyclic compounds as Pim inhibitors” (AMGEN INC., priority 2010, dated 2015).

Each structure is given as a SMILES string. Counter-ions that a name gives are not always drawn. Like-named read-outs stand apart in the source and are kept apart here.

Assay [1] concerns the target T1, full length recombinant Pim-2 protein (Homo sapiens, UniProt Q9P1W9).
T1 construct: by full length recombinant Pim-1, Pim-2, or Pim-3 protein; hexahistidine tag followed by a thrombin cleavage site (N); made in house; host or cells: Sf9 (baculovirus) or E. coli (pET28)
The assay is described as follows: Pim-2 enzyme assay (HTRF, phosphorylation of biotinylated-BAD (S112) peptide). It is filed as biochemical. An excerpt:
(§1) These cDNAs were used as templates in PCR reactions to produce full-length DNA clones of the PIMs. […] PCR products were digested with […] and EcoRI for Pim-1 and BamHI and EcoRI for Pim-2 and ligated into a modified baculovirus transfer vector (pFastBac1) cleaved with BamHI and EcoRI. For bacterial expression, the same cleaved PCR products encoding Pim-1 or Pim-2 were ligated into a modified E. coli expression vector pET28(a) cleaved with BamHI and EcoRI Amino-terminal hexahistidine tags followed by a thrombin cleavage site were previously added to the vectors using standard methods of molecular biology. Recombinant baculoviruses expressing Pim-1 or Pim-2 were made using standard methods (Fastbac manual, Invitrogen, Carlsbad, Calif.). Infection of Sf9 cells was done at an m.o.i. of greater than 5 for 24-48 h. Cells were harvested by centrifugation and frozen at −80 C. For E. coli expression, cells carrying pET28-His6-Th-Pim-1 or pET28-His6-Th-Pim-2 were picked from a single colony and grown o/n in LB media. The o/n culture was used to inoculate a 2 liter flask with 500 mL media. This was grown o/n and used to inoculate 15-20 liters of Terrific Broth in a New Brunswick Scientific fermentor. The E. coli were grown at 37° C. to and OD600>1.6. The temperature was dropped to 18° C. and o/n expression was induced with 0.5 mM IPTG. Cells were harvested by centrifugation and frozen at −80° C.
(§2) This step was repeated 3× and the resin was transferred to a 2.5 cm glass column. Ten column volumes of wash buffer (0.05 M HEPES, pH 8.0, 0.1 M NaCl, 0.01 M 2-mercaptoethanol, 10% (w/v) glycerol) were applied to the resin followed by 10 column volumes of elution buffer (0.05 M HEPES, pH 8.0, 0.25 M NaCl, 0.01 M 2-mercaptoethanol, 10% (w/v) glycerol, 0.1 M imidazole). Fractions were analyzed by SDS-PAGE and those containing the protein of interest were pooled and concentrated. The concentrated protein was applied to an Amersham Superdex 75 (XK 26/60) column equilibrated in 0.025 M Tris-HCl, pH 7.5, 0.1 M NaCl, 0.01 M 2-mercaptoethanol, 10% (w/v) glycerol. […] Fractions containing the monomeric protein of interest were pooled, concentrated to ˜2 mg/mL, and stored at −80° C.
(§3) The phosphorylation of biotinylated-BAD (S112) peptide by full length recombinant Pim-1, Pim-2, or Pim-3 protein was detected with streptavidin:Allophycocyanin (APC) conjugate and a europium (Eu) labeled antibody directed against phosphorylated-BAD (S112). […] The fluorescence is directly proportional to the amount of phosphorylated BAD peptide present in the reaction.
(§4) A reference compound was included on each assay plate in order to validate that plate; on one plate of every assay run, two additional reference compounds were included.
(§5) The final buffer conditions were as follows: 60 mM Hepes, pH 7.0, 0.05% BSA, 2 mM DTT. […] The reaction was stopped by the addition of 3 mM EDTA, and fluorescence was measured by an HTRF® Rubystar microplate reader. For each plate, percent of control (POC) values were calculated for each well. Values for the IC50 IP were estimated using a standard 4-parameter logistic model.

The target of assay [2] is T2, full length recombinant Pim-1 protein (Homo sapiens, UniProt P11309).
T2 construct: by full length recombinant Pim-1, Pim-2, or Pim-3 protein; hexahistidine tag followed by a thrombin cleavage site (N); made in house; host or cells: Sf9 (baculovirus) or E. coli (pET28)
The assay is described as follows: Pim-1 enzyme assay (HTRF, phosphorylation of biotinylated-BAD (S112) peptide). Type of assay: biochemical. Particulars: read-out: Pim_1_IC50.
Description: as §1, §2, §3, §4, §5
In general terms: In TR-FRET formats the signal depends on donor and acceptor labels being close together.

T1 sequence (Q9P1W9 whole entry): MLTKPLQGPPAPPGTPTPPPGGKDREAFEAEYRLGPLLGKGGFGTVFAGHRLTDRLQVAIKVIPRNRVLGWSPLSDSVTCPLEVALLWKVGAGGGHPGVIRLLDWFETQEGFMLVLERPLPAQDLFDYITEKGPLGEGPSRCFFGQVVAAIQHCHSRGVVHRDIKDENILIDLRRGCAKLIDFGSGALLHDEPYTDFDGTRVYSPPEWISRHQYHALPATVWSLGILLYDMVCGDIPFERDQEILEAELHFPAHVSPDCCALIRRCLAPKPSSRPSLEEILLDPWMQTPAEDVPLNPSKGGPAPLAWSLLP
T2 sequence (P11309 whole entry): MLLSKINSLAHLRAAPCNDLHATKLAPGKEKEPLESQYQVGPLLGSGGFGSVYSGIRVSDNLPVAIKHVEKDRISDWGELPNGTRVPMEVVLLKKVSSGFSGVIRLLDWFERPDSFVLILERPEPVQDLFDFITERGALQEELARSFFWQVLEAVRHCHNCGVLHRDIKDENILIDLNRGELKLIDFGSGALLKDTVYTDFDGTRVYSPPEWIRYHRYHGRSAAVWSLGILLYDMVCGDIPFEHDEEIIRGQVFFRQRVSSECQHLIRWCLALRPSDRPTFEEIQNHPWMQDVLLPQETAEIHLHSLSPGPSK

For `CC1CCCCN1c1nc(-c2ccc3[nH]cc(-c4cncc(O[C@@H]5CCCNC5)n4)c3c2)cs1` (mixture of isomers) [Example 303], the IC50 amounted to 0.733 µM in assay [1] (read-out: Pim2_IC50) and 158 nM in assay [2].

`CC1CCCN(c2cnc(-c3ccc4[nH]cc(-c5cncc(O[C@@H]6CCCNC6)n5)c4c3)cn2)C1` (mixture of isomers) [Example 306]: the values for the IC50 in assay [1] (read-out: Pim2_IC50) and in assay [2] were 0.093 µM and 23 nM, respectively.

As to `O[C@@H]1CN(c2cncc(-c3n[nH]c4ccc(-c5c(F)cccc5F)cc34)n2)CC[C@@H]1O` (single isomer, unassigned) [Example 249, cis-1-(6-(5-(2,6-difluorophenyl)-1H-indazol-3-yl)-2-pyrazinyl)-3,4-piperidinediol], the IC50 in assay [1] (read-out: Pim2_IC50) stood at 0.269 µM; in assay [2], 32 nM.

Consider `O[C@@H]1CN(c2cncc(-c3n[nH]c4ccc(-c5c(F)cccc5F)cc34)n2)CC[C@@H]1O` (single isomer, unassigned) [Example 250, cis-1-(6-(5-(2,6-difluorophenyl)-1H-indazol-3-yl)-2-pyrazinyl)-3,4-piperidinediol], for which the IC50 in assay [1] (read-out: Pim2_IC50) worked out at 0.309 µM; in assay [2], 46 nM.

On to `Fc1cccc(F)c1-c1ccc2[nH]nc(-c3cncc(CC4CCCNC4)n3)c2c1` (single isomer, unassigned) [Example 273, 5-(2,6-difluorophenyl)-3-(6-(3-piperidinylmethyl)-2-pyrazinyl)-1H-indazole], for which the IC50 in assay [1] (read-out: Pim2_IC50) is 0.287 µM; in assay [2] it was 70 nM.

In the case of `Fc1cccc(F)c1-c1ccc2[nH]nc(-c3cncc(CC4CCCNC4)n3)c2c1` (single isomer, unassigned) [Example 274, 5-(2,6-difluorophenyl)-3-(6-(3-piperidinylmethyl)-2-pyrazinyl)-1H-indazole], the IC50 in assay [1] (read-out: Pim2_IC50) was 0.09 µM; in assay [2], 20 nM.

Regarding `CC(C)C1CCNCC1Oc1cncc(-c2n[nH]c3ccc(-c4c(F)cccc4F)cc23)n1` (single isomer, unassigned) [Example 394], the figures for the IC50 in assay [1] (read-out: Pim2_IC50) and in assay [2] were 0.203 µM and 30 nM, respectively.

In the case of `Fc1cccc(F)c1-c1ccc2[nH]nc(-c3cncc(SC4CCCNC4)n3)c2c1` (single isomer, unassigned) [Example 415], the IC50 in assay [1] (read-out: Pim2_IC50) amounted to 0.076 µM; in assay [2], 28 nM.

As for `Fc1cccc(F)c1-c1ccc2[nH]nc(-c3cncc(OC4C=CCNC4)n3)c2c1` (single isomer, unassigned) [Example 426], the IC50 in assay [1] (read-out: Pim2_IC50) amounted to 0.174 µM; in assay [2] it was 105 nM.

In the case of `Fc1cccc(F)c1-c1ccc2[nH]nc(-c3cncc(OC4CCNCC45CC5)n3)c2c1` (single isomer, unassigned) [Example 429], the IC50 came to 0.076 µM in assay [1] (read-out: Pim2_IC50) and 30 nM in assay [2].

Turning to `Fc1cccc(F)c1-c1ccc2[nH]cc(-c3cncc(OC4CNCCC45CC5)n3)c2c1` (single isomer, unassigned) [Example 439], the IC50 in assay [1] (read-out: Pim2_IC50) is 0.407 µM; in assay [2], 159 nM.

As to `CC1CNCC(Oc2cncc(-c3n[nH]c4ccc(-c5c(F)cccc5F)cc34)n2)C1` (single isomer, unassigned) [Example 468], the IC50 was 0.196 µM in assay [1] (read-out: Pim2_IC50) and 70 nM in assay [2].

For the molecule `Fc1cccc(F)c1-c1ccc2[nH]nc(-c3cncc(Oc4cccnc4)n3)c2c1` [Example 246, 5-(2,6-difluorophenyl)-3-(6-(3-pyridinyloxy)-2-pyrazinyl)-1H-indazole], the IC50 in assay [1] (read-out: Pim2_IC50) was 0.798 µM; in assay [2], 551 nM.

For `c1ccc(Nc2ccc3[nH]nc(-c4cncc(O[C@H]5CNCCC56CC6)n4)c3c2)cc1` [Example 251, 3-(6-((4R)-6-azaspiro[25]oct-4-yloxy)-2-pyrazinyl)-N-phenyl-1H-indazol-5-amine bis(2,2,2-trifluoroacetate)], the IC50 in assay [1] (read-out: Pim2_IC50) is 0.039 µM; in assay [2], 4 nM.

With `Cn1nccc1-c1ccc2[nH]nc(-c3cncc(O[C@H]4CNCCC45CC5)n3)c2c1` [Example 252, 3-(6-((4R)-6-azaspiro[2.5]oct-4-yloxy)-2-pyrazinyl)-5-(1-methyl-1H-pyrazol-5-yl)-1H-indazole], the IC50 in assay [1] (read-out: Pim2_IC50) came to 0.121 µM; in assay [2], 70 nM.

With `N#Cc1ccc2[nH]nc(-c3cncc(O[C@H]4CNCCC45CC5)n3)c2c1` [Example 254, 3-(6-((4R)-6-azaspiro[2.5]oct-4-yloxy)-2-pyrazinyl)-1H-indazole-5-carbonitrile], the figures for the IC50 in assay [1] (Pim2_IC50 (uM)) and in assay [2] were greater than 1 µM and 364 nM, respectively.

Turning to `C#Cc1ccccc1-c1ccc2[nH]nc(-c3cncc(O[C@H]4CNCCC45CC5)n3)c2c1` [Example 266, 3-(6-((4R)-6-azaspiro[25]oct-4-yloxy)-2-pyrazinyl)-5-(2-ethynylphenyl)-1H-indazole bis(2,2,2-trifluoroacetate)], the IC50 in assay [1] (read-out: Pim2_IC50) stood at 0.044 µM; in assay [2], 13 nM.

As for `C=C(Cl)c1ccccc1-c1ccc2[nH]nc(-c3cncc(O[C@H]4CNCCC45CC5)n3)c2c1` [Example 267, 3-(6-((4R)-6-azaspiro[25]oct-4-yloxy)-2-pyrazinyl)-5-(2-(1-chloroethenyl)phenyl)-1H-indazole bis(2,2,2-trifluoroacetate)], the IC50 in assay [1] (read-out: Pim2_IC50) turned out to be 0.044 µM; in assay [2], 30 nM.

`CC(=O)c1ccc2[nH]nc(-c3cncc(O[C@H]4CNCCC45CC5)n3)c2c1` [Example 268, 1-(3-(6-((4R)-6-azaspiro[25]oct-4-yloxy)-2-pyrazinyl)-1H-indazol-5-yl)ethanone 2,2,2-trifluoroacetate]: the IC50 in assay [1] (read-out: Pim2_IC50) was 0.146 µM; in assay [2], 105 nM.

Consider `OCCc1ccc2[nH]nc(-c3cncc(O[C@H]4CNCCC45CC5)n3)c2c1` [Example 270, 2-(3-(6-((4R)-6-azaspiro[25]oct-4-yloxy)-2-pyrazinyl)-1H-indazol-5-yl)ethanol hydrochloride], for which the IC50 in assay [1] (read-out: Pim2_IC50) worked out at 0.166 µM; in assay [2], 46 nM.

For `CC(CO)c1ccc2c(c1)c(-c1cncc(O[C@H]3CNCCC34CC4)n1)nn2C` (stereo partly drawn) [Example 271, 2-(3-(6-((4R)-6-azaspiro[25]oct-4-yloxy)-2-pyrazinyl)-1-methyl-1H-indazol-5-yl)-1-propanol], the IC50 in assay [1] (read-out: Pim2_IC50) was 0.2 µM; in assay [2] it was 159 nM.

As for `c1cc2[nH]nc(-c3cncc(O[C@H]4CNCCC45CC5)n3)c2cc1-c1cncc(C2CC2)n1` [Example 275, 3-(6-((4R)-6-azaspiro[2.5]oct-4-yloxy)-2-pyrazinyl)-5-(6-cyclopropyl-2-pyrazinyl)-1H-indazole], the values for the IC50 in assay [1] (read-out: Pim2_IC50) and in assay [2] were 0.099 µM and 9 nM, respectively.

For the molecule `COc1cc(-c2c[nH]c3ccc(-c4c(F)cccc4F)cc23)nc(N2CCC(N)CC2)n1` [Example 276, 1-(4-(5-(2,6-difluorophenyl)-1H-indol-3-yl)-6-methoxypyrimidin-2-yl)piperidin-4-amine], the IC50 in assay [1] (read-out: Pim2_IC50) stood at 0.929 µM; in assay [2] it was 344 nM.

For the molecule `COc1cc(-c2c[nH]c3ccc(-c4c(F)cccc4F)cc23)nc(N[C@@H]2CCCNC2)n1` [Example 278, (R)-4-(5-(2,6-difluorophenyl)-1H-indol-3-yl)-6-methoxy-N-(piperidin-3-yl)pyrimidin-2-amine], the IC50 in assay [1] (read-out: Pim2_IC50) turned out to be 0.7 µM; in assay [2], 565 nM.

For `CC(C)Oc1cncc(-c2ccc3[nH]cc(-c4nnc(N5CCC(N)CC5)o4)c3c2)n1` [Example 280, 1-(5-(5-(6-isopropoxypyrazin-2-yl)-1H-indol-3-yl)-1,3,4-oxadiazol-2-yl)piperidin-4-amine], the figures for the IC50 in assay [1] (read-out: Pim2_IC50) and in assay [2] were 0.161 µM and 22 nM, respectively.

Regarding `c1cnc(N2CCOCC2)c(-c2ccc3[nH]cc(-c4cncc(O[C@@H]5CCCNC5)n4)c3c2)c1` [Example 338], in assay [2], the IC50 amounted to 69 nM.

For `CC(C)Oc1cncc(-c2ccc3[nH]cc(-c4nnc(N5CCC[C@@H](N)C5)o4)c3c2)n1` [Example 525], in assay [2], the IC50 turned out to be 70 nM.
